According to PubChem BioAssay AID602353 (The Scripps Research Institute Molecular Screening Center, 2012):
Calls of active or inactive are those of the source. How the calls were made is not given here.

Assays:
Experiment in all cases: in vivo serine hydrolase selectivity profiling, late-stage follow-up, in vivo study for DAGLb inhibitor project, ABPP MudPIT, LC-MS, mouse (AID 602353)
Parl = conditions: mouse tissue ABPP MudPIT, FP-probe spectral counts, stronger effect = lower value
Fam108b = conditions: mouse tissue ABPP MudPIT, FP-probe spectral counts, stronger effect = lower value
Dpp7 = conditions: mouse tissue ABPP MudPIT, FP-probe spectral counts, stronger effect = lower value
[1] = biological target: Diacylglycerol lipase-beta (Mus musculus) (UniProt Q91WC9); conditions: mouse tissue ABPP MudPIT, FP-probe spectral counts; Daglb; stronger effect = lower value
Diacylglycerol lipase-beta (Mus musculus), sequence (Q91WC9 whole entry, looked up): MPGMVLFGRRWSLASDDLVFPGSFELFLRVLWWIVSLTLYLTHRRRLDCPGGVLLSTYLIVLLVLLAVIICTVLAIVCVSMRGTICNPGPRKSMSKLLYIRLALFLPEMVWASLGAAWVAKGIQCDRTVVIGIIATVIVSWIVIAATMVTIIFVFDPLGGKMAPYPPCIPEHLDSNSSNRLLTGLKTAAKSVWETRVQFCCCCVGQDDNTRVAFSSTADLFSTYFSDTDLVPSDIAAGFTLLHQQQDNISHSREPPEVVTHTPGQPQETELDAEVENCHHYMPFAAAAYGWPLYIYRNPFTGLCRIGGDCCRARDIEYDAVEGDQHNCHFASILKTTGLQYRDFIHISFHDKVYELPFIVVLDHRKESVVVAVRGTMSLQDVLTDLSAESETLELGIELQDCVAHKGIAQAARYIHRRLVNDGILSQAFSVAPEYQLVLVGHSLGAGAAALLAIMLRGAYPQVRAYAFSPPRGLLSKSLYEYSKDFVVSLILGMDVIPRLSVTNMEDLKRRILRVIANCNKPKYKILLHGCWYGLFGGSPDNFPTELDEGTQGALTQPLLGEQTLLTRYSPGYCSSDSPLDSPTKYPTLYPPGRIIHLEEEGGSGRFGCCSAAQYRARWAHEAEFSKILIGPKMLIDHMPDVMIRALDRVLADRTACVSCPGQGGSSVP

Abhd10 = conditions: mouse tissue ABPP MudPIT, FP-probe spectral counts, vehicle vs compound significance, stronger effect = lower value
Pla2g7 = conditions: mouse tissue ABPP MudPIT, FP-probe spectral counts, vehicle vs compound significance, stronger effect = lower value
Pafah1b3 = conditions: mouse tissue ABPP MudPIT, FP-probe spectral counts, stronger effect = lower value
[2] = biological target: Monoacylglycerol lipase ABHD6 (Mus musculus) (UniProt Q8R2Y0); conditions: mouse tissue ABPP MudPIT, FP-probe spectral counts, stronger effect = lower value
Monoacylglycerol lipase ABHD6 (Mus musculus), sequence (Q8R2Y0 whole entry, looked up): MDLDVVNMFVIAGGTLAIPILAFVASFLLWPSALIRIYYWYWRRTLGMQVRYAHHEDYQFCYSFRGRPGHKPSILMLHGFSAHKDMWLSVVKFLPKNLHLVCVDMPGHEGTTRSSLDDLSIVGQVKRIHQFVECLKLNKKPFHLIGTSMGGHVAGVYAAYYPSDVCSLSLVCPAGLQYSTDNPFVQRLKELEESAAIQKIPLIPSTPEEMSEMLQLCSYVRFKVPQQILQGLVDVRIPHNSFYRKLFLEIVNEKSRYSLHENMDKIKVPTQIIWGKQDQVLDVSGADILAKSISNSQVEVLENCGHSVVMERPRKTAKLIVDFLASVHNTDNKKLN

Lpl = conditions: mouse tissue ABPP MudPIT, FP-probe spectral counts, stronger effect = lower value
Abhd6 = conditions: mouse tissue ABPP MudPIT, FP-probe spectral counts, vehicle vs compound significance, stronger effect = lower value
Daglb = conditions: mouse tissue ABPP MudPIT, FP-probe spectral counts, vehicle vs compound significance, stronger effect = lower value
[3] = biological target: Acyl-protein thioesterase 1 (Mus musculus) (UniProt P97823); conditions: mouse tissue ABPP MudPIT, FP-probe spectral counts; Lypla1; stronger effect = lower value
Acyl-protein thioesterase 1 (Mus musculus), sequence (P97823 whole entry, looked up): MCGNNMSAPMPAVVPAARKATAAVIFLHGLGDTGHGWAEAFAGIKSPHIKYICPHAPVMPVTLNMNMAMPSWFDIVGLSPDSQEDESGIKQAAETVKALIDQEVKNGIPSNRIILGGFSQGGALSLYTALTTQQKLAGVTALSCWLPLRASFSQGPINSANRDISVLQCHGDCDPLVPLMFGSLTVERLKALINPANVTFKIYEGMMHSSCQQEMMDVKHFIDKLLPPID

Kiaa1363 = conditions: mouse tissue ABPP MudPIT, FP-probe spectral counts, stronger effect = lower value
Pnpla6 = conditions: mouse tissue ABPP MudPIT, FP-probe spectral counts, stronger effect = lower value
[4] = biological target: Platelet-activating factor acetylhydrolase (Mus musculus) (UniProt Q60963); conditions: mouse tissue ABPP MudPIT, FP-probe spectral counts; Pla2g7; stronger effect = lower value
Platelet-activating factor acetylhydrolase (Mus musculus), sequence (Q60963 whole entry, looked up): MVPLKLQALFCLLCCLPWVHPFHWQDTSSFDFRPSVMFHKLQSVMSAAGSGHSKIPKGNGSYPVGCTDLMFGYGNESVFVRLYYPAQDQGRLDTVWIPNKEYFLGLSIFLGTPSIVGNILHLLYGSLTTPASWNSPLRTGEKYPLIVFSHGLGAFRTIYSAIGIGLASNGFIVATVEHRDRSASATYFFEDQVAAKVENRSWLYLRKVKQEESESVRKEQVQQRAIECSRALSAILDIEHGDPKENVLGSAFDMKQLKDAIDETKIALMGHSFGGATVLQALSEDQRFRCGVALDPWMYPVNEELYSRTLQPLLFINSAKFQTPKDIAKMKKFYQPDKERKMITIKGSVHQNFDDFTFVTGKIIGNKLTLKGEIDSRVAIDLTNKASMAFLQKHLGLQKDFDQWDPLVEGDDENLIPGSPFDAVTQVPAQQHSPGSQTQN

Aoah = conditions: mouse tissue ABPP MudPIT, FP-probe spectral counts, stronger effect = lower value
Iah1 = conditions: mouse tissue ABPP MudPIT, FP-probe spectral counts, stronger effect = lower value
Prcp = conditions: mouse tissue ABPP MudPIT, FP-probe spectral counts, stronger effect = lower value
Abhd12 = conditions: mouse tissue ABPP MudPIT, FP-probe spectral counts, stronger effect = lower value
Dpp9 = conditions: mouse tissue ABPP MudPIT, FP-probe spectral counts, stronger effect = lower value
Elane = conditions: mouse tissue ABPP MudPIT, FP-probe spectral counts, stronger effect = lower value
Lipe = conditions: mouse tissue ABPP MudPIT, FP-probe spectral counts, stronger effect = lower value
Dpp8 = conditions: mouse tissue ABPP MudPIT, FP-probe spectral counts, stronger effect = lower value
Ctsa = conditions: mouse tissue ABPP MudPIT, FP-probe spectral counts, stronger effect = lower value
Lypla1 = conditions: mouse tissue ABPP MudPIT, FP-probe spectral counts, vehicle vs compound significance, stronger effect = lower value
Pnpla7 = conditions: mouse tissue ABPP MudPIT, FP-probe spectral counts, stronger effect = lower value
[5] = biological target: Platelet-activating factor acetylhydrolase 2, cytoplasmic (Mus musculus) (UniProt Q8VDG7); conditions: mouse tissue ABPP MudPIT, FP-probe spectral counts; Pafah2; stronger effect = lower value
Platelet-activating factor acetylhydrolase 2, cytoplasmic (Mus musculus), sequence (Q8VDG7 whole entry, looked up): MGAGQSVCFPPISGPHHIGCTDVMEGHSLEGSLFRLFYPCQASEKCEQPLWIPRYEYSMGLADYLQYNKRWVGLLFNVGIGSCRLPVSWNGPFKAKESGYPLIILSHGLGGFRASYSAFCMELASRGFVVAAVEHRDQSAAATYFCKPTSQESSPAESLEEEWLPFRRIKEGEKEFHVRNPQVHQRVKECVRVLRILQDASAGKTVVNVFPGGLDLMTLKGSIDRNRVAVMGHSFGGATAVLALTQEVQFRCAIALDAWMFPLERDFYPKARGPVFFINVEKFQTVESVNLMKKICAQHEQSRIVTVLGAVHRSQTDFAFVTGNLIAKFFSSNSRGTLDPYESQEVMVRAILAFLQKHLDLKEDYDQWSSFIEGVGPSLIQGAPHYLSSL

Ctsg = conditions: mouse tissue ABPP MudPIT, FP-probe spectral counts, stronger effect = lower value
Pafah2 = conditions: mouse tissue ABPP MudPIT, FP-probe spectral counts, vehicle vs compound significance, stronger effect = lower value
Apeh = conditions: mouse tissue ABPP MudPIT, FP-probe spectral counts, stronger effect = lower value
Pafah1b2 = conditions: mouse tissue ABPP MudPIT, FP-probe spectral counts, stronger effect = lower value
Fasn = conditions: mouse tissue ABPP MudPIT, FP-probe spectral counts, stronger effect = lower value
Abhd11 = conditions: mouse tissue ABPP MudPIT, FP-probe spectral counts, stronger effect = lower value
Pla2g15 = conditions: mouse tissue ABPP MudPIT, FP-probe spectral counts, stronger effect = lower value
Dpp4 = conditions: mouse tissue ABPP MudPIT, FP-probe spectral counts, stronger effect = lower value
Magl = conditions: mouse tissue ABPP MudPIT, FP-probe spectral counts, stronger effect = lower value
Lypla2 = conditions: mouse tissue ABPP MudPIT, FP-probe spectral counts, stronger effect = lower value
Acot2 = conditions: mouse tissue ABPP MudPIT, FP-probe spectral counts, stronger effect = lower value
Pnpla8 = conditions: mouse tissue ABPP MudPIT, FP-probe spectral counts, stronger effect = lower value
Acot1 = conditions: mouse tissue ABPP MudPIT, FP-probe spectral counts, stronger effect = lower value
[6] = biological target: Palmitoyl-protein thioesterase ABHD10, mitochondrial (Mus musculus) (UniProt Q6PE15); conditions: mouse tissue ABPP MudPIT, FP-probe spectral counts, stronger effect = lower value
Palmitoyl-protein thioesterase ABHD10, mitochondrial (Mus musculus), sequence (Q6PE15 whole entry, looked up): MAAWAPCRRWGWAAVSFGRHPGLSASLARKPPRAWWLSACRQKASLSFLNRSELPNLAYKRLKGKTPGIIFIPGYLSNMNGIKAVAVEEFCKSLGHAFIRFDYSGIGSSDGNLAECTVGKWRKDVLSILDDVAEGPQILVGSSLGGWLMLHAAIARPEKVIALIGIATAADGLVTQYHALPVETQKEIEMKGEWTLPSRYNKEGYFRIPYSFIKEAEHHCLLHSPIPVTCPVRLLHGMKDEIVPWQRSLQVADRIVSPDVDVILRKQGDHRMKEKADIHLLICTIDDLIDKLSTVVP

[7] = vehicle vs compound significance

With `COc1ccccc1-c1ccc(-c2cn(C(=O)N3CCCCC3Cc3ccccc3)nn2)cc1` (stereo not given) the spectral counts, test compound (Parl) was 20 (inactive), the P value (Parl; [7]) was 0.382 and the spectral counts, test compound (Fam108b) was 24 (inactive). The P value (Fam108b; [7]) was 0.757, the spectral counts, test compound (Dpp7) was 61.7 (inactive) and the P value (Dpp7; [7]) was 0.138. It also gave a spectral counts, test compound [1] of 0, a P value (Abhd10) of 0.961 and a P value (Pla2g7) of 0.996. The spectral counts, test compound (Pafah1b3) was 35 (inactive), the P value (Pafah1b3; [7]) was 0.532 and the spectral counts, test compound [2] was 0. For the same compound, the spectral counts, test compound (Lpl) was 20.3 (inactive), the P value (Lpl; [7]) was 0.81 and the P value (Abhd6) was 0.033. The P value (Daglb) was 0.004, the spectral counts, test compound [3] was 84 (inactive) and the spectral counts, test compound (Kiaa1363) was 206 (inactive). For the same compound, the P value (Kiaa1363; [7]) was 0.156, the spectral counts, test compound (Pnpla6) was 11.3 (inactive) and the P value (Pnpla6; [7]) was 0.696. The spectral counts, test compound [4] was 97.3 (inactive), the spectral counts, test compound (Aoah) was 35.7 (inactive) and the P value (Aoah; [7]) was 0.389. The spectral counts, test compound (Iah1) was 22.3 (inactive), the P value (Iah1; [7]) was 0.127 and the spectral counts, test compound (Prcp) was 133 (inactive). For the same compound, the P value (Prcp; [7]) was 0.736, the spectral counts, test compound (Abhd12) was 64.7 (inactive) and the P value (Abhd12; [7]) was 0.512. For the same compound, the spectral counts, test compound (Dpp9) was 134 (inactive), the P value (Dpp9; [7]) was 0.213 and the spectral counts, test compound (Elane) was 120 (inactive). The P value (Elane; [7]) was 0.837, the spectral counts, test compound (Lipe) was 76 (inactive) and the P value (Lipe; [7]) was 0.299. The spectral counts, test compound (Dpp8) was 31.3 (inactive), the P value (Dpp8; [7]) was 0.949 and the spectral counts, test compound (Ctsa) was 57.7 (inactive). The P value (Ctsa; [7]) was 0.562, the P value (Lypla1) was 0.819 and the spectral counts, test compound (Pnpla7) was 34.3 (inactive). For the same compound, the P value (Pnpla7; [7]) was 0.536, the spectral counts, test compound [5] was 33.7 (inactive) and the spectral counts, test compound (Ctsg) was 283 (inactive). For the same compound, the P value (Ctsg; [7]) was 0.854, the P value (Pafah2) was 0.491 and the spectral counts, test compound (Apeh) was 252 (inactive). For the same compound, the P value (Apeh; [7]) was 0.731, the spectral counts, test compound (Pafah1b2) was 66 (inactive) and the P value (Pafah1b2; [7]) was 0.317. For the same compound, the spectral counts, test compound (Fasn) was 178 (inactive), the P value (Fasn; [7]) was 0.517 and the spectral counts, test compound (Abhd11) was 23 (inactive). For the same compound, the P value (Abhd11; [7]) was 0.167, the spectral counts, test compound (Pla2g15) was 15 (inactive) and the P value (Pla2g15; [7]) was 0.135. For the same compound, the spectral counts, test compound (Dpp4) was 146 (inactive), the P value (Dpp4; [7]) was 0.754 and the spectral counts, test compound (Magl) was 5.67 (inactive). The P value (Magl; [7]) was 0.368, the spectral counts, test compound (Lypla2) was 118 (inactive) and the P value (Lypla2; [7]) was 0.278. The spectral counts, test compound (Acot2) was 85 (inactive), the P value (Acot2; [7]) was 0.094 and the spectral counts, test compound (Pnpla8) was 3.67 (inactive). The P value (Pnpla8; [7]) was 0.35, the spectral counts, test compound (Acot1) was 48.3 (inactive) and the P value (Acot1; [7]) was 0.802. The spectral counts, test compound [6] was 22.3 (inactive).
